Molecules are shown by their SMILES.

Holding throughout (type): cell-based
One test addresses T1, D(4) dopamine receptor (Homo sapiens, UniProt P21917).
T1 sequence (P21917 whole entry): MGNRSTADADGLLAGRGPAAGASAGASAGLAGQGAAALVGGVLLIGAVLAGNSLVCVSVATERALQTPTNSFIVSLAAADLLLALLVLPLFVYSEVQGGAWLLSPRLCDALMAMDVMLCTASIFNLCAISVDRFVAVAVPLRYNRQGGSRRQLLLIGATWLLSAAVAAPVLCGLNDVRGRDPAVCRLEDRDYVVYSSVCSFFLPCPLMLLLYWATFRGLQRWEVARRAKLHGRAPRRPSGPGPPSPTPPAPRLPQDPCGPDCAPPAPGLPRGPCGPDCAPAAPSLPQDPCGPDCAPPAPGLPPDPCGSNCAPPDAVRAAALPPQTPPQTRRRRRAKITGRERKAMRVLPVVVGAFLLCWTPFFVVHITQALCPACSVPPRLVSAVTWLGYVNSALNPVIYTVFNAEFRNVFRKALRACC
Kind of test: Binding affinity at cloned human D4 dopamine receptor in CHO cells using [3H]-YM 09151 as radioligand.

The target in a further test is D(3) dopamine receptor (Homo sapiens, UniProt P35462). Kind of test: Binding affinity at cloned human D3 dopamine receptor in CHO cells using [3H]-YM 09151 as radioligand.
The target in a further test is D(2) dopamine receptor (Homo sapiens, UniProt P14416). Kind of test: Binding affinity at cloned human D2 dopamine receptor in CHO cells using [3H]-YM 09151 as radioligand.
Sequence of D(2) dopamine receptor (P14416 whole entry): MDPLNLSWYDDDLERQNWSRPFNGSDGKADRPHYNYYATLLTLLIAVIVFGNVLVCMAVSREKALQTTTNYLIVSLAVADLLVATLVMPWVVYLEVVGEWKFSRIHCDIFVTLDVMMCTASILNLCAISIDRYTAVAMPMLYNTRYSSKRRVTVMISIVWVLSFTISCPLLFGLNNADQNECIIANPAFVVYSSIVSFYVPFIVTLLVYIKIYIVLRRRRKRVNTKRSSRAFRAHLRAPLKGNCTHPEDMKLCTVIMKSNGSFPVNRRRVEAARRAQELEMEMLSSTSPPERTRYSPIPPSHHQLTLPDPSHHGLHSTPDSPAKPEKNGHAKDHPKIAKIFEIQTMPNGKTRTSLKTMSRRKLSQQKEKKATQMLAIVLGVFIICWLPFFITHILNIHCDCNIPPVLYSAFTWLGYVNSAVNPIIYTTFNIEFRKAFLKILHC

Sequence of D(3) dopamine receptor (P35462 whole entry): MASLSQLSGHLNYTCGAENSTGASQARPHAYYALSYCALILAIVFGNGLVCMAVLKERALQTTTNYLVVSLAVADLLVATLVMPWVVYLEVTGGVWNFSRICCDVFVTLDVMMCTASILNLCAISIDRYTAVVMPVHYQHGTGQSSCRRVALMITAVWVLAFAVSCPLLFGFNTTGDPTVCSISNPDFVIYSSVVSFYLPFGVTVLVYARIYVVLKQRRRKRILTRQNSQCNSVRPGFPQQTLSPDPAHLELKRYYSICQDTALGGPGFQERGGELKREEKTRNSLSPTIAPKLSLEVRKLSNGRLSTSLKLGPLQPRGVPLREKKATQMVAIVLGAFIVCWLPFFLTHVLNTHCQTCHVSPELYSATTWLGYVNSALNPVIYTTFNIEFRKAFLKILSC

As a reminder, the Ki is the dissociation constant of the complex between target and ligand, obtained from inhibition or displacement. A low value points to higher affinity. `c1ccc2c(c1)N=C(NCCCCCN1CCN(c3ccc4ccccc4n3)CC1)CO2`: the Ki at D(4) dopamine receptor amounted to 125 nM.

As to `COc1ccccc1N1CCN(CCCNC2=Nc3ccccc3OC2)CC1`, the figures for the inhibition constant (Ki) at D(3) dopamine receptor, on D(2) dopamine receptor and on D(4) dopamine receptor were over 1000 nM, 280 nM and 3 nM, respectively.
